This is an account of results in US6677435B2, “Prodrug activation using catalytic antibodies” (The Scripps Research Institute, priority 1999, dated 2004).

Assay [1] concerns human prostate cancer cell line LNCap. The assay is described as follows: Cell growth inhibition assay (lactate dehydrogenase colour reaction), LNCap. Format: cell-based. The source says:
(§1) Human colon carcinoma cell lines HT29 and LIM1215 were kindly provided by Dr. Lloyd J. Old from The Ludwig Institute for Cancer Research in New York. Human prostate cancer cell line LNCap was purchased from American Type Culture Collection (Manassas, Va.). All cell lines were maintained in RPMI 1640 medium (Hyclone, Logan, Utah) supplemented with 10% fetal bovine serum (Life Technologies, Gaithersburg, Md.) and antibiotic-antimycotic reagents (Life Technologies) containing penicillin, streptomycin, and amphotericin B. The cell lines were cultivated in culture flasks at 37° C. in a humidifying incubator in an atmosphere of 5% CO2.
(§2) Stock solutions of 5 mM doxorubicin and prodoxorubicin in DMF, respectively, were stored at 4° C. For cell growth inhibition assays, 250-μM dilutions of doxorubicin and prodoxorubicin in PBS (pH 7.4) were freshly prepared from the 5 mM stock solutions and further diluted in cell culture medium to yield 10 nM to 25 μM solutions. Methyl vinyl ketone was purchased from Aldrich (Milwaukee, Wis.). Stock solutions of 1 mM camptothecin and procamptothecin in DMF, respectively, were stored at 4° C. […] Prior to the quantitative cell growth inhibition assay, the cell density was qualitatively analyzed by microscopy. This visual evaluation always matched the result of the quantitative analysis. […] For quantification, 50 μl aliquots were transferred to another 96-well plate and the color was read at 490 nm in an ELISA plate reader. The absorbance data were converted to percent cell density with the untreated controls being 100% and the background of the color reaction being 0%.
(§3) The antiproliferative effects of drug and prodrug were monitored by quantifying the cell growth in the presence of a range of concentrations of doxorubicin and prodoxorubicin, respectively. Three different human cancer cell lines were evaluated, human colon carcinoma cell lines HT29 and LIM1215 and human prostate cancer cell line LNCap. […]

For assay [2], the system named is HT29 human colon carcinoma cells. The assay is described as follows: Cell growth inhibition assay (lactate dehydrogenase colour reaction), HT29. Format: cell-based.
Text: as §1, §2, §3

Assay [3] deals with LIM1215 human colon carcinoma cells. The experiment in a line: Cell growth inhibition assay (lactate dehydrogenase colour reaction), LIM1215. Particulars: for IC50: Homo sapiens, LIM1215. Format: cell-based.
Protocol: Stock solutions of 5 mM doxorubicin and prodoxorubicin in DMF, respectively, were stored at 4° C. For cell growth inhibition assays, 250-μM dilutions of doxorubicin and prodoxorubicin in PBS (pH 7.4) were freshly prepared from the 5 mM stock solutions and further diluted in cell culture medium to yield 10 nM to 25 μM solutions. […] Stock solutions of 1 mM camptothecin and procamptothecin in DMF, respectively, were stored at 4° C. For cell growth inhibition assays, 100-μM dilutions of camptothecin and procamptothecin in PBS (pH 7.4) were freshly prepared from the 1 mM stock solutions and further diluted in cell culture medium to yield 10 nM to 1 μM solutions. Cells grown in culture flasks were trypsinized, washed with PBS, resuspended in cell culture medium, and reduced to a single cell suspension by passing through a 18 G needle. After counting, the cells were plated at a density of 5×10^3 (HT29) or 1×10^4 (LIM1215, LNCap) cells/well in 96-well tissue culture plates and maintained in culture as described above. Drugs were diluted to a final concentration range of 10 nM to 25 μM in 100 μl 10% fetal bovine serum in RPMI 1640 and added to the cells 24 hours after plating. […] After drug addition, the cells were maintained at 37° C. in 5% CO2for 3 to 5 days (72 to 120 hours). Prior to the quantitative cell growth inhibition assay, the cell density was qualitatively analyzed by microscopy. […] The cells were then washed with 150 μl PBS (pH 7.5) and incubated with 100 μl of 9% (v/v) Triton-X 100 (Sigma, St. Louis, Mo.) for 45 minutes at 37° C. The supernatant was then transferred to a 96-well V-shaped plate and centrifuged to remove cell debris. […] For quantification, 50 μl aliquots were transferred to another 96-well plate and the color was read at 490 nm in an ELISA plate reader. The absorbance data were converted to percent cell density with the untreated controls being 100% and the background of the color reaction being 0%.
In assay [4] the test system is antibody 38C2. The experiment in a line: Kinetic analysis of antibody 38C2-catalyzed prodrug activation (RP-HPLC). The format is biochemical, mouse. Here is the method:
All antibody reactions were carried out in PBS (pH 7.4) at 37° C. in microfuge tubes. […] Kinetic data were derived from Lineweaver-Burk plots. […] Topoisomerase I and II inhibitor doxorubicin was chosen as a model compound for this prodrug activation concept because its structure activity relationship is well characterized and it has been used previously in ADEPT systems (Niculescu-Duvaz, I. & Springer, C. J. (1997) Adv. Drug Delivery Rev. 26, 151-172). Doxorubicin is a drug approved for cancer therapy that suffers from misdirected toxicity. […] The tertiary aldol was chosen as the first reaction since no known natural enzyme catalyzes this particular type of retro-aldol reaction. […] Typically 38C2 is highly enantioselective, however, under the conditions studied, the reaction proceeded to completion indicative of loss of enantioselectivity and complete activation of the prodrug. According to a pharmacokinetic analysis of ADEPT systems, low kcat values combined with high Km values are expected to increase the tumor to blood ratio of the free drug, leading to a reduction in peripheral toxicity (Yuan, J., Baxter, L. T. & Jain, R. K. (1991). Cancer Res. 51, 3119-3130). […] To this end, both the masking linker and catalytic antibody are being optimized.

The mark [5] stands for this setting: 72 h after drug addition, 50% decrease in cell density vs untreated control.
The mark [6] stands for this setting: HT-29, 72 h after drug addition, 50% decrease in cell density vs untreated control.

On to `COc1cccc2c1C(=O)c1c(O)c3c(c(O)c1C2=O)C[C@@](O)(C(=O)CO)C[C@@H]3O[C@H]1C[C@H](N)[C@H](O)[C@H](C)O1` [doxorubicin], for which the IC50 in assay [1] (setting [5]) was found to be 0.4 µM; in assay [1] (120 h after drug addition) it was 0.2 µM; in assay [2] (setting [6]), 3 µM; in assay [2] (HT-29, 120 h after drug addition), 2.5 µM; in assay [3] (setting [5]) it was 0.4 µM; in assay [3] (120 h after drug addition), 0.4 µM.
On to `CC[C@@]1(O)C(=O)OCc2c1cc1n(c2=O)Cc2cc3ccccc3nc2-1` [camptothecin], for which the IC50 in assay [1] (setting [5]) is 0.01 to 0.025 µM; in assay [2] (setting [6]), 0.1 to 0.25 µM; in assay [3] (setting [5]), 0.1 to 0.25 µM.
As for `CC(=O)CC(C)=O` [2,4-pentanedione], the “inhibition of 38C2 catalysis of prodoxorubicin cleavage” value in assay [4] is recorded as “completely inhibited”.
As to `C=CC(C)=O` [methyl vinyl ketone], in assay [3] (LIM1215 cells, 120 h, without combination partner), the “cell growth inhibition when applied alone” value was “no inhibition of cell growth”.

As usually defined, the IC50 is the concentration at which inhibition is half-maximal.
